Data set [1] has as its target T1, 17α-hydroxylase/C17-20 lyase enzyme complex (Homo sapiens, UniProt P05093).
T1 construct: for hydroxylase determinations, the microsomal preparation, prepared according to S. E. Bartie et al; from tissue
T1 sequence (P05093 1-508): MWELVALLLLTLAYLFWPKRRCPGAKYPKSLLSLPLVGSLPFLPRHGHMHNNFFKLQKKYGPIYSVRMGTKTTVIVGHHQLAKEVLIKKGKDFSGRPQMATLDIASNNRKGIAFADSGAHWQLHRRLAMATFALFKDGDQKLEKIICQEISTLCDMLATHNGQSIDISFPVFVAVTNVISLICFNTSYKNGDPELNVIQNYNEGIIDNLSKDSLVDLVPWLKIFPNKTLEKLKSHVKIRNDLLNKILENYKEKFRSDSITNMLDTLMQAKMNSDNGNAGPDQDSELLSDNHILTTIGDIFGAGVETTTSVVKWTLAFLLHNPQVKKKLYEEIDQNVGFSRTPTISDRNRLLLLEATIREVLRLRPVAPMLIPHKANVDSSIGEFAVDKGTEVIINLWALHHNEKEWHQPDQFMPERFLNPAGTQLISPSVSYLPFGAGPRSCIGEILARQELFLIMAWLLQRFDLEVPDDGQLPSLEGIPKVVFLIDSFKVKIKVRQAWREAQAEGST
The experiment in a line: hydroxylase/lyase inhibition, general statements on potency. In kind it is biochemical. The note with it: of the order of; greater than the less good compounds of formula (3).
Description: In the hydroxylase assay, the "Nucleosil" pre-column for separation of steroids was also "C18". In the lyase assay, the reaction was stopped after 1/2 hour. […] The enzyme activity was measured from 3 (not 4) concentrations of compound.

In a further data set the target is T2, lyase (Homo sapiens, UniProt P05093).
T2 sequence (P05093 1-508): T1 sequence (P05093 1-508)
In words: biochemical.

In the next data set the target is T3, hydroxylase (Homo sapiens, UniProt P05093).
T3 sequence (P05093 1-508): T1 sequence (P05093 1-508)
In words: biochemical.

The next data set concerns the target T4, aromatase (Homo sapiens, UniProt P11511).
T4 sequence (P11511 1-503): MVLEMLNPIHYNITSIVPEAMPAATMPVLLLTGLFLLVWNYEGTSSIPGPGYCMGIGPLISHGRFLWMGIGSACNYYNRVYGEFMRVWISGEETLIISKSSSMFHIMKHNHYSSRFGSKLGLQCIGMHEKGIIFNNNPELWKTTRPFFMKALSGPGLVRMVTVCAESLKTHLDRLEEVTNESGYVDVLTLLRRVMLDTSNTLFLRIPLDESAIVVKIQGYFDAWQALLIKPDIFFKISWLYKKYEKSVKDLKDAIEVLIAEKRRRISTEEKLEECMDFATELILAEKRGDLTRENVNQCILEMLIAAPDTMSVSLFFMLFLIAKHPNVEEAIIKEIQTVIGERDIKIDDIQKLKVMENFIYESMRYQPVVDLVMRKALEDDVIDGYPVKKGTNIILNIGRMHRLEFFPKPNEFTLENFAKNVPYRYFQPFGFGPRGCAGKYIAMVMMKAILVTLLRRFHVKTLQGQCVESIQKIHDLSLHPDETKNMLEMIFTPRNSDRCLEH
In words: biochemical.

Data set [2] in a line: resistance of the esters to hydrolytic cleavage (method of R. McCague et al., 1990). The conditions noted are these: compared with the other esters of Examples 1-8.
Data set [3] has as its system acute toxicity in mice of 4-vinylpyridine. The note with it: J. Med. Chem. 16, 865-867 (1973); cited from earlier work.
Another data set relates to a species of yeast. The note with it: Korytnyk and Fricke, J. Med. Chem. 11, 180-181 (1968); cited from earlier work.

The term IC50 denotes the concentration needed to halve the response being measured. A lower IC50 goes with greater potency in that assay.

As for `O=C(NCc1ccncc1)C1CCCCC1` [Cy NH H H 4, reference compound], the “IC50 against lyase and hydroxylase relative to the less good compounds of formula (3)” value in data set [1] is recorded as around 20 ×. Further, the values for the IC50 at lyase and at hydroxylase were 10000 nM and 40000 nM, respectively.
As to `CC(Cc1cccnc1)C(=O)C12CC3CC(CC(C3)C1)C2` (racemic) [Example 11, (±)-1-(1-Adamantyl)-2-methyl-3-(3-pyridyl)propan-1-one], the IC50 is 700 nM on lyase, 2700 nM against aromatase and 1000 nM on hydroxylase.
For `CC(CC(=O)C12CC3CC(CC(C3)C1)C2)c1cccnc1` (racemic) [Example 10, (±)-1-(1-Adamantyl)-3-(3-pyridyl)butan-1-one], the IC50 on lyase turned out to be 500 nM; on aromatase, 1400 nM; on hydroxylase, 1300 nM.
In the case of `CC(C)(OC(=O)C12CC3CC(CC(C3)C1)C2)c1ccncc1` [Example 4, 2-(4-Pyridyl)propan-2-yl 1-adamantanecarboxylate], the “resistance to hydrolytic cleavage” value in data set [2] is given as “considerably more resistant to cleavage than the other esters”.
Take `O=C(CCc1cccnc1)C12CC3CC(CC(C3)C1)C2` [Example 9, 1-(1-Adamantyl)-3-(3-pyridyl)propan-1-one]: the half-inhibitory concentration (IC50) at lyase is 450 nM; against aromatase it was 3400 nM; against hydroxylase, 2200 nM.
As for `Cc1c(COC(=O)C23CC4CC(CC(C4)C2)C3)cnc(CO)c1O`, the “reversal of the acute toxicity of 4-vinylpyridine” value in data set [3] is given as “reverse the acute toxicity in mice of 4-vinylpyridine”. Moreover, the “growth inhibition of yeast” value in the data set on a species of yeast is listed as “weak growth inhibitors of a species of yeast”.
Consider `Cc1c(COC(=O)C23CC4CC(CC(C4)C2)C3)cc(CO)nc1O`, for which the “growth inhibition of yeast” value with a species of yeast is recorded as “weak growth inhibitors of a species of yeast”.
Turning to `CC(C)(OC(=O)C12CC3CC(CC(C3)C1)C2)c1cccnc1` [Example 8, 2-(3-Pyridyl)propan-2-yl 1-adamantanecarboxylate], the “resistance to hydrolytic cleavage” value in data set [2] is on record as “considerably more resistant to cleavage than the other esters”.

Source of the values: patent publication US5595995A, “Pyridyl-propan-2-yl esters of 1-adamantane carboxylates” (priority 1992, dated 1997).
